Data as given in patent US8247211B2, “Glycopeptide antibiotics” (American Cyanamid Company, priority 2001, dated 2012).

Legend:
Enterococcus sp. = assay: In vitro antibacterial evaluation: minimum inhibitory concentration (MIC), broth dilution method; assay type: cell-based
Method in brief: (§1)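 NCCLS M7-A2 broth dilution; Muller-Hinton II […]; 5×10^5 CFU/mL; 64-0.06 μg/mL. MIC = lowest concentration with no growth.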

Escherichia coli = assay: as above; assay type: cell-based
Method in brief: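 Following NCCLS approved standard M7-A2, compounds are serially diluted from 64 to 0.06 μg/mL in Muller-Hinton II […] and inoculated at 5×10^5 CFU/mL; the MIC is the minimum concentration at which growth is inhibited.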

Staphylococcus sp. = assay: as above; assay type: cell-based; settings: 18 hours at 35° C.
Method in brief: as §1

Streptococcus sp. = assay: as above; assay type: cell-based
Method in brief: as §1

[1] = test system: Staphylococcus aureus-SMITH (GC 4543); assay: Acute lethal infection in mice (ED50); assay type: in vivo; settings: female CD-1 mice, intraperitoneal challenge, intravenous dose 30 min. after infection, 7 day survival ratios
Method in brief: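 Median effective dose is calculated from 7-day survival ratios pooled across three separate tests. Mice (female CD-1) receive an intraperitoneal bacterial challenge in broth or hog gastric mucin, then intravenous drug 30 min later, five animals per dose level.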

[2] = Anatomic pathology (heart and kidney histopathology) in mice; assay type: in vivo, CD-1 mice; settings: 20 mg/kg intravenously daily for 9 days, microscopic histopathology on day 10
Method in brief: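 Juvenile CD-1 mice (20 days old; 5 vehicle, 5 treated) received glycopeptide antibiotic 20 mg/kg i.v. daily for 9 days. Necropsied tissues formalin-fixed, paraffin-embedded, H&E stained and examined microscopically; findings graded slight to severe versus controls.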

[3] = broth dilution, inoculum 5×10^5 CFU/mL, 18 hours at 35° C.

COc1ccc2cc(COCC3OC(OC4C(CO)OC(Oc5ccc(CC6NC(=O)C(C(C)c7ccccc7)NC(=O)CNC(=O)C(CO)NC(=O)C(C(O)C7CNC(=N)N7C7OC(CO)C(O)C(O)C7O)NC(=O)C(C(O)C7CNC(=N)N7)NC6=O)cc5)C(O)C4O)C(O)C(O)C3O)ccc2c1 (stereo not drawn) [Example 230, Cyclo[glycyl-β-methylphenylalanyl-O-[4-O-[6-O-[(6-methoxy-2-naphthyl)methyl]hexopyranosyl]hexopyranosyl]tyrosyl-3-(2-iminoimidazolidin-4-yl)seryl-3-(3-hexopyranosyl-2-iminoimidazolidin-4-yl)serylseryl]]
+++: Anatomical Pathology (Day 10), Kidney [2]
<0.06 µg/mL: MIC Streptococcus pneumoniae (GC 1894) (Streptococcus sp.; Streptococcus pneumoniae (GC 1894), 18 hours at 35° C.) | MIC Streptococcus pneumoniae (GC 1894) (Streptococcus sp.; [3])
2 µg/mL: MIC Enterococcus faecium (GC 4557) (Enterococcus sp.; Enterococcus faecium (GC 4557), 18 hours at 35° C.) | MIC Enterococcus faecium (GC 4557) (Enterococcus sp.; [3]) | MIC Coagulase Negative Staphylococcus (GC 4551) (Staphylococcus sp.; Coagulase Negative Staphylococcus (GC 4551)) | MIC Staphylococcus aureus (ATCC 29213) (Staphylococcus sp.; Staphylococcus aureus (ATCC 29213)) | MIC Staphylococcus aureus (GC 1131) (Staphylococcus sp.; Staphylococcus aureus (GC 1131)) | MIC Staphylococcus aureus (GC 3051) (Staphylococcus sp.; Staphylococcus aureus (GC 3051)) | MIC Staphylococcus aureus (GC 3053) (Staphylococcus sp.; Staphylococcus aureus (GC 3053)) | MIC Staphylococcus aureus (GC 4542) (Staphylococcus sp.; Staphylococcus aureus (GC 4542)) | MIC Staphylococcus aureus (GC 4544) (Staphylococcus sp.; Staphylococcus aureus (GC 4544))
4 µg/mL: MIC Enterococcus faecalis (GC 2691) (Enterococcus sp.; Enterococcus faecalis (GC 2691), 18 hours at 35° C.) | MIC Enterococcus faecalis (GC 6189) (Enterococcus sp.; Enterococcus faecalis (GC 6189), 18 hours at 35° C.) | MIC Enterococcus faecalis (GC 2691) (Enterococcus sp.; [3]) | MIC Enterococcus faecalis (GC 6189) (Enterococcus sp.; [3])
0.12 mg/kg: median effective dose (ED50), Staphylococcus aureus-SMITH (GC 4543) [1]
0: Anatomical Pathology (Day 10), Heart [2]
8 µg/mL: MIC Enterococcus avium (GC 4558) (Enterococcus sp.; Enterococcus avium (GC 4558), 18 hours at 35° C.) | MIC Enterococcus faecalis (ATCC 29212) (Enterococcus sp.; Enterococcus faecalis (ATCC 29212), 18 hours at 35° C.) | MIC Enterococcus faecalis (GC 2242) (Enterococcus sp.; Enterococcus faecalis (GC 2242), 18 hours at 35° C.) | MIC Enterococcus faecalis (GC 3059) (Enterococcus sp.; Enterococcus faecalis (GC 3059), 18 hours at 35° C.) | MIC Enterococcus faecalis (GC 4552) (Enterococcus sp.; Enterococcus faecalis (GC 4552), 18 hours at 35° C.) | MIC Enterococcus faecalis (GC 4553) (Enterococcus sp.; Enterococcus faecalis (GC 4553), 18 hours at 35° C.) | MIC Enterococcus faecalis (GC 4554) (Enterococcus sp.; Enterococcus faecalis (GC 4554), 18 hours at 35° C.) | MIC Enterococcus faecium (GC 2243) (Enterococcus sp.; Enterococcus faecium (GC 2243), 18 hours at 35° C.) | MIC Enterococcus faecium (GC 4556) (Enterococcus sp.; Enterococcus faecium (GC 4556), 18 hours at 35° C.) | MIC Enterococcus avium (GC 4558) (Enterococcus sp.; [3]) | MIC Enterococcus faecalis (ATCC 29212) (Enterococcus sp.; [3]) | MIC Enterococcus faecalis (GC 2242) (Enterococcus sp.; [3]) | MIC Enterococcus faecalis (GC 3059) (Enterococcus sp.; [3]) | MIC Enterococcus faecalis (GC 4552) (Enterococcus sp.; [3]) | MIC Enterococcus faecalis (GC 4553) (Enterococcus sp.; [3]) | MIC Enterococcus faecalis (GC 4554) (Enterococcus sp.; [3]) | MIC Enterococcus faecium (GC 2243) (Enterococcus sp.; [3]) | MIC Enterococcus faecium (GC 4556) (Enterococcus sp.; [3])
0.25 µg/mL: MIC Streptococcus pyogenes (GC 4563) (Streptococcus sp.; Streptococcus pyogenes (GC 4563), 18 hours at 35° C.) | MIC Streptococcus pyogenes (GC 4563) (Streptococcus sp.; [3])
1 µg/mL: MIC Escherichia coli (GC 4560) (Escherichia coli; Escherichia coli (GC 4560), 18 hours at 35° C.) | MIC Coagulase Negative Staphylococcus (GC 4547) (Staphylococcus sp.; Coagulase Negative Staphylococcus (GC 4547)) | MIC Coagulase Negative Staphylococcus (GC 4549) (Staphylococcus sp.; Coagulase Negative Staphylococcus (GC 4549)) | MIC Staphylococcus aureus (GC 4541) (Staphylococcus sp.; Staphylococcus aureus (GC 4541)) | MIC Staphylococcus aureus (GC 4545) (Staphylococcus sp.; Staphylococcus aureus (GC 4545)) | MIC Staphylococcus aureus-SMITH (GC 4543) (Staphylococcus sp.; Staphylococcus aureus-SMITH (GC 4543)) | MIC Staphylococcus haemolyticus (GC 4546) (Staphylococcus sp.; Staphylococcus haemolyticus (GC 4546))
>64 µg/mL: MIC Escherichia coli (GC 4559) (Escherichia coli; Escherichia coli (GC 4559), 18 hours at 35° C.)
0.12 µg/mL: MIC Streptococcus pneumoniae (ATCC 6301) (Streptococcus sp.; Streptococcus pneumoniae (ATCC 6301), 18 hours at 35° C.) | MIC Streptococcus pneumoniae (GC 4565) (Streptococcus sp.; Streptococcus pneumoniae (GC 4565), 18 hours at 35° C.) | MIC Streptococcus pneumoniae (ATCC 6301) (Streptococcus sp.; [3]) | MIC Streptococcus pneumoniae (GC 4565) (Streptococcus sp.; [3])
0.5 µg/mL: MIC Coagulase Negative Staphylococcus (GC 4548) (Staphylococcus sp.; Coagulase Negative Staphylococcus (GC 4548)) | MIC Coagulase Negative Staphylococcus (GC 6257) (Staphylococcus sp.; Coagulase Negative Staphylococcus (GC 6257)) | MIC Streptococcus agalactiae (GC 4564) (Streptococcus sp.; Streptococcus agalactiae (GC 4564), 18 hours at 35° C.) | MIC Streptococcus agalactiae (GC 4564) (Streptococcus sp.; [3])
64 µg/mL: MIC Escherichia coli (ATCC 25922) (Escherichia coli; Escherichia coli (ATCC 25922), 18 hours at 35° C.)

CC(c1ccccc1)C1NC(=O)CNC(=O)C(CO)NC(=O)C(C(O)C2CN(Cc3ccc(C(C)(C)C)cc3)C(=N)N2C2OC(CO)C(O)C(O)C2O)NC(=O)C(C(O)C2CNC(=N)N2)NC(=O)C(Cc2ccc(OC3OC(CO)C(OC4OC5COC6(OC5C(O)C4O)C4CC5CC(C4)CC6C5)C(O)C3O)cc2)NC1=O (stereo not shown) [Example 77]
16 µg/mL: MIC Enterococcus faecalis (GC 2242) (Enterococcus sp.; Enterococcus faecalis (GC 2242), broth dilution, 18 hours at 35° C.) | MIC Enterococcus faecalis (GC 2691) (Enterococcus sp.; Enterococcus faecalis (GC 2691), broth dilution, 18 hours at 35° C.) | MIC Enterococcus faecalis (GC 3059) (Enterococcus sp.; Enterococcus faecalis (GC 3059), broth dilution, 18 hours at 35° C.) | MIC Enterococcus faecalis (ATCC 29212) (Enterococcus sp.; strain ATCC 29212) | MIC Enterococcus faecalis (GC 2242) (Enterococcus sp.; strain GC 2242) | MIC Enterococcus faecalis (GC 2691) (Enterococcus sp.; strain GC 2691) | MIC Enterococcus faecalis (GC 3059) (Enterococcus sp.; strain GC 3059) | MIC Enterococcus faecalis (GC 4552) (Enterococcus sp.; strain GC 4552) | MIC Enterococcus faecium (GC 4556) (Enterococcus sp.; strain GC 4556) | MIC Enterococcus faecalis (GC 6189) (Enterococcus sp.; strain GC 6189) | MIC Staphylococcus aureus (GC 1131) (Staphylococcus sp.; broth dilution) | MIC Staphylococcus aureus (GC 3053) (Staphylococcus sp.; broth dilution) | MIC Staphylococcus aureus (GC 4544) (Staphylococcus sp.; broth dilution)
0: Anatomical Pathology (Day 10), Heart [2] | Anatomical Pathology (Day 10), Kidney [2]
1 µg/mL: MIC Streptococcus agalactiae (GC 4564) (Streptococcus sp.; Streptococcus agalactiae (GC 4564), broth dilution, 18 hours at 35° C.) | MIC Streptococcus pyogenes (GC 4563) (Streptococcus sp.; Streptococcus pyogenes (GC 4563), broth dilution, 18 hours at 35° C.) | MIC Streptococcus pyogenes (GC 4563) (Streptococcus sp.; strain GC 4563) | MIC Streptococcus agalactiae (GC 4564) (Streptococcus sp.; strain GC 4564)
2 to 4 µg/mL: MIC Streptococcus pneumoniae (GC 4565) (Streptococcus sp.; Streptococcus pneumoniae (GC 4565), broth dilution, 18 hours at 35° C.) | MIC Streptococcus pneumoniae (GC 4565) (Streptococcus sp.; strain GC 4565)
8 µg/mL: MIC Enterococcus faecium (GC 2243) (Enterococcus sp.; strain GC 2243) | MIC Enterococcus faecalis (GC 4553) (Enterococcus sp.; strain GC 4553) | MIC Coagulase Negative Staphylococcus (GC 4551) (Staphylococcus sp.; broth dilution) | MIC Staphylococcus aureus (GC 4545) (Staphylococcus sp.; broth dilution) | MIC Staphylococcus aureus SMITH (GC 4543) (Staphylococcus sp.; broth dilution) | MIC Staphylococcus aureus-SMITH (GC 4543) (Staphylococcus sp.; strain SMITH GC 4543, broth dilution)
1 to 2 µg/mL: MIC Enterococcus faecium (GC 4557) (Enterococcus sp.; strain GC 4557)
4 µg/mL: MIC Enterococcus avium (GC 4558) (Enterococcus sp.; strain GC 4558) | MIC Escherichia coli (GC 4560) (Escherichia coli; strain GC 4560) | MIC Coagulase Negative Staphylococcus (GC 4547) (Staphylococcus sp.; broth dilution) | MIC Coagulase Negative Staphylococcus (GC 4548) (Staphylococcus sp.; broth dilution)
8 to 16 µg/mL: MIC Staphylococcus aureus (ATCC 29213) (Staphylococcus sp.; broth dilution) | MIC Staphylococcus aureus (GC 3051) (Staphylococcus sp.; broth dilution) | MIC Staphylococcus aureus (GC 4542) (Staphylococcus sp.; broth dilution)
4 mg/kg: median effective dose (ED50), Staphylococcus aureus-SMITH (GC 4543) [1]
2 µg/mL: MIC Coagulase Negative Staphylococcus (GC 6257) (Staphylococcus sp.; broth dilution) | MIC Streptococcus pneumoniae (ATCC 6301) (Streptococcus sp.; Streptococcus pneumoniae (ATCC 6301), broth dilution, 18 hours at 35° C.) | MIC Streptococcus pneumoniae (ATCC 6301) (Streptococcus sp.; strain ATCC 6301)
4 to 8 µg/mL: MIC Coagulase Negative Staphylococcus (GC 4549) (Staphylococcus sp.; broth dilution) | MIC Staphylococcus aureus (GC 4541) (Staphylococcus sp.; broth dilution) | MIC Staphylococcus haemolyticus (GC 4546) (Staphylococcus sp.; broth dilution)
